Measured values: patent publication US6852759B2, “Process for the synthesis of trans-alkenoic acids, use thereof” (priority 2002, dated 2005)
Marks after values point to notes of the source that are not given here.

How the values were obtained:
Format in all cases: in vivo
[1] = test system: CCl4 administration in mice; assay: Hexobarbitone sleep time after CCl4 administration
[2] = test system: acetaminophen (APAP) in mice; assay: Hepatoprotective activity, prophylactic study, acetaminophen (APAP) after diethyl-ether
[3] = test system: CCl4 induced hepatic injury in rats; assay: Hepatoprotective activity, prophylactic study, CCl4
[4] = 12.5 mg/kg p.o. 1 h before CCl4, mice
[5] = 25 mg/kg p.o. 1 h before CCl4, mice
[6] = 50 mg/kg p.o. 1 h before CCl4, mice
[7] = 100 mg/kg p.o. 1 h before CCl4, mice
[8] = 12.5 mg/kg p.o. + APAP, prophylactic
[9] = 25 mg/kg p.o. + APAP, prophylactic
[10] = 50 mg/kg p.o. + APAP, prophylactic
[11] = 100 mg/kg p.o. + APAP, prophylactic
[12] = TCA alone 100 mg/kg p.o., no APAP, prophylactic study
[13] = 12.5 mg/kg p.o. + CCl4, prophylactic
[14] = 25 mg/kg p.o. + CCl4, prophylactic

## CCCCCCCC/C=C/CCCCCCCCCCCCCC(=O)O [TCA, t-Tetracos-15-enoic acid]
[1]; [4]
  Hexobarbitone Hepatoprotection: 35.55 ± 5.78%
  Hexobarbitone Sleeping time: 44.16 ± 1.87*^c min
[1]; [5]
  Hexobarbitone Hepatoprotection: 55.14 ± 7.16%
  Hexobarbitone Sleeping time: 37.83 ± 2.31**^c min
[1]; [6]
  Hexobarbitone Hepatoprotection: 74.21 ± 6.27%
  Hexobarbitone Sleeping time: 31.66 ± 2.31**^c min
[1]; [7]
  Hexobarbitone Hepatoprotection: 85.04 ± 7.12%
  Hexobarbitone Sleeping time: 28.16 ± 2.30**^c min
[1]; TCA alone 100 mg/kg p.o., no CCl4, mice
  Hexobarbitone Sleeping time: 21.85 ± 1.34 min
[2]; [8]
  Serum ALP: 50.41 ± 3.07 μmole of p-nitrophenel formed/min/L
  Serum ALP, hepatoprotective activity percent: (21.27 ± 9.50) percent
  Serum GOT: 1079.43 ± 98.66 Units
  Serum GOT, hepatoprotective activity percent: (25.66 ± 7.72) percent
  Serum GPT: 2182.19 ± 137.86 Units
  Serum GPT, hepatoprotective activity percent: (22.86 ± 5.31) percent
  Serum Triglycerides: 14.72 ± 0.68 mg %
  Serum Triglycerides, hepatoprotective activity percent: (28.28 ± 8.27) percent
[2]; [9]
  Serum ALP: 46.23 ± 1.73 μmole of p-nitrophenel formed/min/L
  Serum ALP, hepatoprotective activity percent: (34.15 ± 5.39) percent
  Serum GOT: 880.10 ± 60.29 Units
  Serum GOT, hepatoprotective activity percent: (41.26 ± 4.72) percent
  Serum GPT: 1696.53 ± 48.31 Units
  Serum GPT, hepatoprotective activity percent: (41.57 ± 1.86) percent
  Serum Triglycerides: 13.47 ± 0.89 mg %
  Serum Triglycerides, hepatoprotective activity percent: (43.32 ± 10.80) percent
[2]; [10]
  Serum ALP: 41.44 ± 1.27 μmole of p-nitrophenel formed/min/L
  Serum ALP, hepatoprotective activity percent: (49.04 ± 3.94) percent
  Serum GOT: 619.36 ± 88.89 Units
  Serum GOT, hepatoprotective activity percent: (61.67 ± 6.96) percent
  Serum GPT: 1066.99 ± 118.14 Units
  Serum GPT, hepatoprotective activity percent: (65.82 ± 4.55) percent
  Serum Triglycerides: 12.34 ± 0.85 mg %
  Serum Triglycerides, hepatoprotective activity percent: (56.84 ± 10.23) percent
[2]; [11]
  Serum ALP: 35.08 ± 2.18 μmole of p-nitrophenel formed/min/L
  Serum ALP, hepatoprotective activity percent: (68.82 ± 6.78) percent
  Serum GOT: 310.53 ± 45.32 Units
  Serum GOT, hepatoprotective activity percent: (85.85 ± 4.25) percent
  Serum GPT: 539.60 ± 51.65 Units
  Serum GPT, hepatoprotective activity percent: (86.13 ± 1.99) percent
  Serum Triglycerides: 10.87 ± 0.69 mg %
  Serum Triglycerides, hepatoprotective activity percent: (74.48 ± 8.37) percent
[2]; [12]
  Serum ALP: 27.15 ± 2.92 μmole of p-nitrophenel formed/min/L
  Serum GOT: 106.86 ± 30.15 Units
  Serum GPT: 146.00 ± 32.15 Units
  Serum Triglycerides: 7.77 ± 0.56 mg %
[3]; [13]
  Serum ALP: 45.25 ± 2.37^NS μmole of p-nitrophenol formed/min/L
  Serum ALP, hepatoprotective activity percent: (26.32 ± 6.55) percent
  Serum Bilirubin: 0.47 ± 0.01 mg %
  Serum Bilirubin, hepatoprotective activity percent: (47.98 ± 2.02) percent
  Serum GOT: 695.16 ± 67.28 Units
  Serum GOT, hepatoprotective activity percent: (33.87 ± 7.99) percent
  Serum GPT: 992.34 ± 73.25 Units
  Serum GPT, hepatoprotective activity percent: (41.52 ± 4.97) percent
  Serum Triglycerides: 13.51 ± 0.51^NS mg %
  Serum Triglycerides, hepatoprotective activity percent: (26.40 ± 7.84) percent
[3]; [14]
  Serum ALP: 39.48 ± 2.46 μmole of p-nitrophenol formed/min/L
  Serum ALP, hepatoprotective activity percent: (43.28 ± 7.81) percent
  Serum Bilirubin: 0.42 ± 0.01 mg %
  Serum Bilirubin, hepatoprotective activity percent: (55.33 ± 2.86) percent
  Serum GOT: 674.44 ± 53.20 Units
  Serum GOT, hepatoprotective activity percent: (36.33 ± 6.32) percent
  Serum GPT: 924.39 ± 39.82 Units
